Assay [1] has as its system BMP4 induced Smad1/5/8 phosphorylation in C2C12 cells. The assay can be described thus: BMP4 induced Smad1/5/8 phosphorylation, Western blot. To be noted: for IC50: Mus musculus. Format: cell-based. The procedure:
C2C12 and HEK293 cells were grown in DMEM supplemented with 10% FCS (PAA) and seeded at a density of 1 x 10^5 cells per well in 6-well plates. The next day the cells were starved in DMEM containing 1% FCS for 5 hours. Inhibitors were added at the indicated concentrations for 30 minutes followed by 10 ng/mL BMP4 (Peprotech), 100 ng/mL BMP6 (Peprotech), 100 ng/mL Activin A (Peprotech) or 2 ng/mL TGF-β1 (Cell Signaling) for 1 hour. Cells were washed in PBS and lysed on ice for 30 minutes in lysis buffer (20 mM Tris-HCl pH 7.5, 150 mM NaCl, 1% Triton X-100, 25 mM NaF, 25 mM Na β-glycerophosphate, 2 mM Na3VO4) containing protease inhibitors (Roche). Protein concentration in the clarified lysate was determined by Bradford Assay (Pierce) and 15 µg run on 4–12% Bis-Tris gel (Biorad). The protein was transferred onto nitrocellulose membrane (GE Healthcare) and probed with the relevant antibody at 4°C overnight (Cell Signaling: anti-Smad 1 (#9743), anti-P-Smad 1/5/8 (#9511), anti-Smad 2 (#5339), anti-P-Smad 2 (#3101). After subsequent incubation with HRP-conjugated anti-rabbit antibody, protein bands were detected using ECL (Pierce) and an LAS4000 image reader. Cells were purchased originally from the European Collection of Cell Cultures (ECACC) available through Sigma.

The target in assay [2] is T1, GRK6 (Homo sapiens, UniProt P43250).
T1 construct: purchased Nanosyn (enzymatic panel); SGC in-house recombinant human kinases (DSF panel); Invitrogen (ALK1-6)
The assay can be described thus: Nanosyn kinase profiling. Format: biochemical. To be noted: read-out: Percentage inhibition; for inhibition at 0.1 µM: 0.1 µM inhibitor; for inhibition at 1 µM: 1 µM inhibitor. In a few lines:
(§1)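 Percent inhibition of each kinase was measured with the inhibitor at 0.1 µM and at 1 µM, as part of a 200-kinase human selectivity panel.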

In assay [3] the target is T2, CDK4/cycD (Homo sapiens, UniProt P11802).
T2 construct: purchased Nanosyn (enzymatic panel); SGC in-house recombinant human kinases (DSF panel); Invitrogen (ALK1-6)
The assay can be described thus: Nanosyn kinase profiling. Format: biochemical. To be noted: read-out: Percentage inhibition; for inhibition at 0.1 µM: 0.1 µM inhibitor; for inhibition at 1 µM: 1 µM inhibitor. In a few lines:
as §1

For assay [4], the target named is T3, TIE2 (Homo sapiens, UniProt Q02763).
T3 construct: purchased Nanosyn (enzymatic panel); SGC in-house recombinant human kinases (DSF panel); Invitrogen (ALK1-6)
Briefly: Nanosyn kinase profiling. Format: biochemical. To be noted: read-out: Percentage inhibition; for inhibition at 0.1 µM: 0.1 µM inhibitor; for inhibition at 1 µM: 1 µM inhibitor. In a few lines:
as §1

Assay [5] addresses T4, CAMK4 (Homo sapiens, UniProt Q16566).
T4 construct: purchased Nanosyn (enzymatic panel); SGC in-house recombinant human kinases (DSF panel); Invitrogen (ALK1-6)
T4 sequence (Q16566 1-473): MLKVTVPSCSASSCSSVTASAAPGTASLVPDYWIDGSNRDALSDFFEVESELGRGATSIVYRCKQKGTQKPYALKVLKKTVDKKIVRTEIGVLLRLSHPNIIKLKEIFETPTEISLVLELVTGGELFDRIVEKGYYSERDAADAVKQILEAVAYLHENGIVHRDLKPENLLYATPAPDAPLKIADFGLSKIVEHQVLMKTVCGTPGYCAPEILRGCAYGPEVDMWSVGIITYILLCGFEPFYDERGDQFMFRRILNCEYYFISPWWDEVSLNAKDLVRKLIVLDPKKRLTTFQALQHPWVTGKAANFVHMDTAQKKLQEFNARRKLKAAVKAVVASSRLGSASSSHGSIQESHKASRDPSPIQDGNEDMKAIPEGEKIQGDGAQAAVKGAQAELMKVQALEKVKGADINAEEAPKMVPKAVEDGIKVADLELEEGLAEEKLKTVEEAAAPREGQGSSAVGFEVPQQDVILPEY
Briefly: Nanosyn kinase profiling. Format: biochemical. As to conditions: read-out: Percentage inhibition; for inhibition at 0.1 µM: 0.1 µM inhibitor; for inhibition at 1 µM: 1 µM inhibitor. In outline:
as §1

The target in assay [6] is T5, MSK1 (Homo sapiens, UniProt O75582).
T5 construct: purchased Nanosyn (enzymatic panel); SGC in-house recombinant human kinases (DSF panel); Invitrogen (ALK1-6)
Briefly: Nanosyn kinase profiling. Format: biochemical. As to conditions: read-out: Percentage inhibition; for inhibition at 0.1 µM: 0.1 µM inhibitor; for inhibition at 1 µM: 1 µM inhibitor. In a few lines:
as §1

For assay [7], the target named is T6, MAPKAPK2 (Homo sapiens, UniProt P49137).
T6 construct: purchased Nanosyn (enzymatic panel); SGC in-house recombinant human kinases (DSF panel); Invitrogen (ALK1-6)
Briefly: Nanosyn kinase profiling. Format: biochemical. To be noted: read-out: Percentage inhibition; for inhibition at 0.1 µM: 0.1 µM inhibitor; for inhibition at 1 µM: 1 µM inhibitor. In a few lines: as §1

Assay [8] relates to panel of 200 human kinases. Briefly: Kinome-wide selectivity, number of kinases inhibited. To be noted: 1 µM inhibitor; 200 kinases. Format: biochemical. As to the method:
Percentage inhibition was determined for each kinase at both 0.1 µM and 1 µM inhibitor concentration (supplemental Table S2). […]. […]. When visualized on a kinase phylogenetic tree, these were primarily clustered within the receptor tyrosine kinases (TKs) as well as the calmodulin-dependent kinases (CAMKs) (Figure 2C).
(§2) Inhibitor selectivity profiling against 200 human kinases at 0.1 and 1 µM inhibitor concentration was performed by Nanosyn (www.nanosyn.com).

For assay [9], the target named is T7, FLT3 (Homo sapiens, UniProt P36888).
T7 construct: purchased Nanosyn (enzymatic panel); SGC in-house recombinant human kinases (DSF panel); Invitrogen (ALK1-6)
Briefly: Nanosyn kinase profiling. Format: biochemical. To be noted: read-out: Percentage inhibition. The procedure: (§3) Percentage inhibition was determined for each kinase at both 0.1 µM and 1 µM inhibitor concentration (supplemental Table S2).
as §2

Assay [10] deals with T8, MINK (Homo sapiens, UniProt Q8N4C8).
T8 construct: purchased Nanosyn (enzymatic panel); SGC in-house recombinant human kinases (DSF panel); Invitrogen (ALK1-6)
The assay can be described thus: Nanosyn kinase profiling. As to conditions: read-out: Percentage inhibition. Format: biochemical. As to the method:
as §3, §2

Assay [11] has as its target T9, BRAF (Homo sapiens, UniProt P15056).
T9 construct: purchased Nanosyn (enzymatic panel); SGC in-house recombinant human kinases (DSF panel); Invitrogen (ALK1-6)
The assay can be described thus: Nanosyn kinase profiling. Format: biochemical. As to conditions: read-out: Percentage inhibition. As to the method:
as §3, §2

The target of assay [12] is T10, FMS (Homo sapiens, UniProt P07333).
T10 construct: purchased Nanosyn (enzymatic panel); SGC in-house recombinant human kinases (DSF panel); Invitrogen (ALK1-6)
The assay can be described thus: Nanosyn kinase profiling. Format: biochemical. To be noted: read-out: Percentage inhibition. As to the method:
as §3, §2

Assay [13] concerns the target T11, MAP4K4 (Homo sapiens, UniProt O95819).
T11 construct: purchased Nanosyn (enzymatic panel); SGC in-house recombinant human kinases (DSF panel); Invitrogen (ALK1-6)
The assay can be described thus: Nanosyn kinase profiling. Format: biochemical. As to conditions: read-out: Percentage inhibition. The procedure:
as §3, §2

Assay [14] has as its target T12, ALK1 (Homo sapiens, UniProt P37023).
T12 construct: purchased Nanosyn (enzymatic panel); SGC in-house recombinant human kinases (DSF panel); Invitrogen (ALK1-6)
The assay can be described thus: In vitro kinase assay ([γ-32P]ATP). As to conditions: at the Km value of ATP; triplicate. Format: biochemical. As to the method:
Inhibitors were added at concentrations between 0 and 10 µM in kinase reaction buffer and tested in triplicate.

The test system of assay [15] is ALK2. Set-up: method as in PMID 19914855. To be noted: read-out: reported in vitro IC50 (enzymatic assays); cited from earlier work.

The structures appear in SMILES notation. Values joined by “and” are separate entries in the source; they are usually repeats but may differ in a detail not shown here. Identical values can stand only once. Like-named read-outs stand apart in the source and are kept apart here.

We go through 3 compounds from PMC3639963, “A New Class of Small Molecule Inhibitor of BMP Signaling” (PLoS ONE, 2013).

T3 sequence (Q02763 23-1124): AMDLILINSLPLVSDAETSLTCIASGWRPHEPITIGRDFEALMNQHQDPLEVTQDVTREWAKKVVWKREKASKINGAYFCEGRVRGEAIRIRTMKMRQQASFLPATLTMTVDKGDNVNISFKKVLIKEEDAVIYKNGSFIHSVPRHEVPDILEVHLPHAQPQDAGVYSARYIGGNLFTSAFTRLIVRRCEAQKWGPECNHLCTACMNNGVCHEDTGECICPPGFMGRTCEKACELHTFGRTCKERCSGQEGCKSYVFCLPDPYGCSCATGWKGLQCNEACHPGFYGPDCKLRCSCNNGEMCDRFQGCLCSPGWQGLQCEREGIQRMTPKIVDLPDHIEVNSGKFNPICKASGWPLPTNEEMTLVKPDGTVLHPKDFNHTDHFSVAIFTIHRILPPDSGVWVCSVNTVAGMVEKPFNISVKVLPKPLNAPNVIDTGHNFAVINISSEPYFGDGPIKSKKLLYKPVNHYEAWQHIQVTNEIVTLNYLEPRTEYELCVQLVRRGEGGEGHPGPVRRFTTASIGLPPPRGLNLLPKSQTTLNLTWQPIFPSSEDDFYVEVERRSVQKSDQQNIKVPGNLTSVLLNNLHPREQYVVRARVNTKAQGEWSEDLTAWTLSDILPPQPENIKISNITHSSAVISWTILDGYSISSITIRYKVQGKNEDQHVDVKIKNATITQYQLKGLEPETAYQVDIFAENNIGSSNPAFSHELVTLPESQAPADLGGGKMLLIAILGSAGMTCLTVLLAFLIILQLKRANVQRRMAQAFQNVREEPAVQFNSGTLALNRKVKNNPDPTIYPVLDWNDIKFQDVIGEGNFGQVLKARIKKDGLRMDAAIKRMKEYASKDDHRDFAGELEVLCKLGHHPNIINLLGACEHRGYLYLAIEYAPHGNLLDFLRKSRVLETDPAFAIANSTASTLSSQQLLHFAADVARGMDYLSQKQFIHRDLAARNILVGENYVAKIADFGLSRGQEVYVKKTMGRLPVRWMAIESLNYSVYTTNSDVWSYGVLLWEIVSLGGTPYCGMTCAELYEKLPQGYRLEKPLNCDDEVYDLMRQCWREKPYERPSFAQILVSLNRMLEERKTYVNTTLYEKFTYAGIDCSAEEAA
T6 sequence (P49137 whole entry): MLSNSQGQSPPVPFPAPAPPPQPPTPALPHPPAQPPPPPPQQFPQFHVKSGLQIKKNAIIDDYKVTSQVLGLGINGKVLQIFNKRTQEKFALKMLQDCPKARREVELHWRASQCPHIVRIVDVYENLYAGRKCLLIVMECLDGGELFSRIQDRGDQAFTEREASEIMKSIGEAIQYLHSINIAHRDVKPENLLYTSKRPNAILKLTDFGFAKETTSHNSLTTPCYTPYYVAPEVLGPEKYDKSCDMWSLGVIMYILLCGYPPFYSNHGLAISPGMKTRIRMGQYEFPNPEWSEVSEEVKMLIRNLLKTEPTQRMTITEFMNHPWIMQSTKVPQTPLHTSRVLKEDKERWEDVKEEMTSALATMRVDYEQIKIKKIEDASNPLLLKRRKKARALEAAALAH
T1 sequence (P43250 whole entry): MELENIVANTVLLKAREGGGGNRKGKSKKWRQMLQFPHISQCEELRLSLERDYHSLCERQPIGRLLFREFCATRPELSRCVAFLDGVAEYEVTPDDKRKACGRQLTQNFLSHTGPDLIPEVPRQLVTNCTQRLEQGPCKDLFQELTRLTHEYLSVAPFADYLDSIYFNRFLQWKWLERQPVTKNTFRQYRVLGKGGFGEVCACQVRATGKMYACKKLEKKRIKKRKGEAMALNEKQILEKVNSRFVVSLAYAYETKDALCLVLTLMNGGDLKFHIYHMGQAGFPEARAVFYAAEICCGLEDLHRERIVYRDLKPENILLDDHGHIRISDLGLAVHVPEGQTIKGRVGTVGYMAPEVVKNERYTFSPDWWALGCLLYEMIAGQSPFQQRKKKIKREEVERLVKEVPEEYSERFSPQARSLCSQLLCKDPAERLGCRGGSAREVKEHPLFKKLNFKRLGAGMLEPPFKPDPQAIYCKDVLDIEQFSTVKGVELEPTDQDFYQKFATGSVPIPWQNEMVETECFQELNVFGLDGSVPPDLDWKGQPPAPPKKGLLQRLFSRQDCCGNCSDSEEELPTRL
T5 sequence (O75582 whole entry): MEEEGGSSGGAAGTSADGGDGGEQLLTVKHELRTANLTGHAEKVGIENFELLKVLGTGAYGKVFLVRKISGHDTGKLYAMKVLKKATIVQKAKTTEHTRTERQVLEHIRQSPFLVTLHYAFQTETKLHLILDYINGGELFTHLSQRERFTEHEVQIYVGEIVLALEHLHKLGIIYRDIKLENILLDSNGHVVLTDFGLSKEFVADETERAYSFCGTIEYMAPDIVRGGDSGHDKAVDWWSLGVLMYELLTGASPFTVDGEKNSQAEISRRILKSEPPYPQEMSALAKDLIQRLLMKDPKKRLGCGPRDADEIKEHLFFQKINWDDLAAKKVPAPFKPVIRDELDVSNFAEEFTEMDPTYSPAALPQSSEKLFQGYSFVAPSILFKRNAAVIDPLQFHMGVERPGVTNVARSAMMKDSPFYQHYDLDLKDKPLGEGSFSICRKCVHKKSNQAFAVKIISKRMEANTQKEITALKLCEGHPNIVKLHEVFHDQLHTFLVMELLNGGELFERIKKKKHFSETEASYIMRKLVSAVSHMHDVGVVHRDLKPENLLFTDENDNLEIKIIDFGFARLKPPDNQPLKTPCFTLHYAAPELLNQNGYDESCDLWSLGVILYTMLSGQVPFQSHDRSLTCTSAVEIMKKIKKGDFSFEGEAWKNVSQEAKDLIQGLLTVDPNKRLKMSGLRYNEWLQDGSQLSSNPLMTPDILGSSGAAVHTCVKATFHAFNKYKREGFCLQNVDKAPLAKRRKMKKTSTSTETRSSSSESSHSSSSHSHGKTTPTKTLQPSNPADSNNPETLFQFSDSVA
T2 sequence (P11802 whole entry): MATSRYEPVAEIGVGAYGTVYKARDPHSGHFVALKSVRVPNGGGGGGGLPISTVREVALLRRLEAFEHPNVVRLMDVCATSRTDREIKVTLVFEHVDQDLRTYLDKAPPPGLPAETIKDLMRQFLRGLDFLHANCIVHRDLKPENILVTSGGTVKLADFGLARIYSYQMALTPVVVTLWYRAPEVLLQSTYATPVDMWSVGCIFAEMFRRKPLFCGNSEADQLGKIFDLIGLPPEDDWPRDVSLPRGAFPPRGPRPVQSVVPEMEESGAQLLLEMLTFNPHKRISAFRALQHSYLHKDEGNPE
T2 sequence (P24385 whole entry partner): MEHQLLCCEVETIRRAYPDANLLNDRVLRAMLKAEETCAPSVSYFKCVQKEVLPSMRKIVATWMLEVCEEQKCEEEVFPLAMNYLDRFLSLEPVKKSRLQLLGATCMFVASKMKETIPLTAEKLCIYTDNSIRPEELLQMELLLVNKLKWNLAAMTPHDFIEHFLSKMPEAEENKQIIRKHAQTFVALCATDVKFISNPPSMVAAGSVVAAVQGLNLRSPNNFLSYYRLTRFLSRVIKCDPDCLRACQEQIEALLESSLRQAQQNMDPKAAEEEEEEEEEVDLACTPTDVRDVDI
T9 sequence (P15056 whole entry): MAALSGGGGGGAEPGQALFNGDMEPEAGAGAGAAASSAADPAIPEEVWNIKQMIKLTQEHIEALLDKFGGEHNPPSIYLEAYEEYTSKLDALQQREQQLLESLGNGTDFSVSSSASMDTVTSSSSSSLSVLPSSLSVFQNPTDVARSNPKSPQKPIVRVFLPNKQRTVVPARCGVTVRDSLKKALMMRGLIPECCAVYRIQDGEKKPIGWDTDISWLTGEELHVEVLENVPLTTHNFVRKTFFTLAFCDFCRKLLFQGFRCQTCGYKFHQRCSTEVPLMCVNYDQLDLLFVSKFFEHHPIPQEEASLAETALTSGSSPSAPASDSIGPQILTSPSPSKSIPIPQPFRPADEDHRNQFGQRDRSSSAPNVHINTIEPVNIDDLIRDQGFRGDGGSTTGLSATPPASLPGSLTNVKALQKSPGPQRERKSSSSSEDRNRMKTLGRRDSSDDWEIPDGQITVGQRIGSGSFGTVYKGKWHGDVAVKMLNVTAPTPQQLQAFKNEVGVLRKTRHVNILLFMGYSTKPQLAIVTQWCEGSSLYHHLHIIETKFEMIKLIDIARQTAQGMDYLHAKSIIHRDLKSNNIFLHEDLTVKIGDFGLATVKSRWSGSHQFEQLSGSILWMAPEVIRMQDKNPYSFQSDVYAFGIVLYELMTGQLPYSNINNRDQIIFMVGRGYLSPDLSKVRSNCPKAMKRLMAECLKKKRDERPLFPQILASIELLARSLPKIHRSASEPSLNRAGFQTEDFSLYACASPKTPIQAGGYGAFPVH
T12 sequence (P37023 22-503): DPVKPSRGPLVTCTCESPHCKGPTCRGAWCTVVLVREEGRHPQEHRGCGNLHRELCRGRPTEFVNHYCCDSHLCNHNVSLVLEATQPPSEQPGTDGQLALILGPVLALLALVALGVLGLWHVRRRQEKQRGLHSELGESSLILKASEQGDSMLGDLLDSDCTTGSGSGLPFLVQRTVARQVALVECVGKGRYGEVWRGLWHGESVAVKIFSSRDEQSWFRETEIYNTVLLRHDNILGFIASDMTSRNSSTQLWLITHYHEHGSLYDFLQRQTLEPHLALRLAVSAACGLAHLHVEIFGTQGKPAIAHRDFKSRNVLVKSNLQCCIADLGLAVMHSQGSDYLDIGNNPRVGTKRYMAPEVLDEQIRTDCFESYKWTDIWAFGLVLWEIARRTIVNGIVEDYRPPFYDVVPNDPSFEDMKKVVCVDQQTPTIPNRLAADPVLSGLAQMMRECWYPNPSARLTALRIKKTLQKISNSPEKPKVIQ

Regarding `c1ccc2c(-c3cnn4cc(-c5ccc(N6CCNCC6)cc5)cnc34)ccnc2c1` [LDN-193189], the IC50 in assay [1] (C2C12, read-out: apparent IC50, Smad1/5/8 phosphorylation) stood at 10 nM. The inhibition at 0.1 µM in assay [2] worked out at 0%; in [3] it was 0.8%; in [4] it was 2%; in assay [5] it was 0.1%; in assay [6], 1.1%; in assay [7], 0.7%. Moreover, the inhibition at 1 µM in [2] worked out at 0.2%; in assay [3], 8.3%; in assay [4], 16%; in assay [5] it was 0%; in assay [6] it was 1.3%; in assay [7] it was 0%. For the same compound, the “number of kinases with >50% inhibition” value in assay [8] was determined as 21 kinases.

Turning to `COc1cc(-c2cc(-c3cccc(O)c3)cnc2N)cc(OC)c1OC` [K02288, 3-[6-amino-5-(3,4,5-trimethoxy-phenyl)-pyridin-3-yl]-phenol], the inhibition at 0.1 µM in assay [9] (0.1 µM inhibitor) was -2%; in assay [10] (0.1 µM inhibitor) it was 36%; in assay [11] (0.1 µM inhibitor), 0%; in [12] (0.1 µM inhibitor), 6.1%; in assay [13] (0.1 µM inhibitor), 46%; in assay [2], 0.2%. In addition, the inhibition at 0.1 µM is 0.1% in assay [3]; 1% in assay [4]; -1% in assay [5]; -2% in assay [6]; -2% in assay [7]. Further, the inhibition at 1 µM was found to be 0.4% in assay [9] (1 µM inhibitor); 86% in assay [10] (1 µM inhibitor); 12% in [11] (1 µM inhibitor); 33% in assay [12] (1 µM inhibitor); 89% in [13] (1 µM inhibitor); 1.4% in assay [2]. For the same compound, the inhibition at 1 µM in assay [3] is 1.3%; in assay [4], 3%; in [5], -1%; in assay [6] it was -1%; in assay [7], -1%. Besides, the “activity weaker than control compound LDN-193189” value in assay [1] (C2C12 cells, BMP4, P-Smad1/5/8) is 10 fold. Moreover, the IC50 in [1] (C2C12 cells, BMP4 stimulation, read-out: apparent IC50, Smad1/5/8 phosphorylation) is 100 nM; in assay [14], 1.8 nM and 1 to 2 nM. For the same compound, the “further kinases with >50% inhibition (beyond ABL and ARG)” value in [8] was 6 kinases.

In the case of `c1cc(-c2cnn3cc(-c4ccc(OCCN5CCCCC5)cc4)cnc23)ccn1` [Dorsomorphin], in assay [15], the IC50 was 50 nM.
